Measured values as given in patent publication US4512986A, “Progrestationally active steroids” (priority 1983, dated 1985).
Like-named read-outs stand apart in the source and are kept apart here.

What was measured:
[1] = system: endometrium of estrogen-primed ovariectomized or climacteric women; details: cited from earlier work
[2] = system: estrogen-primed immature rabbits; details: cited from earlier work
cycling rats [3] = details: literature; cited from earlier work
[4] = system: curettage specimens of endometrial cancer patients; details: i.m. twice weekly 3-7 weeks after polyestradiol phosphate 80 mg; all 12 patients; cited from earlier work
[5] = in vivo; cited from earlier work
[6] = target: T1, Cytosol Progesterone Receptor of the Estrogen-primed Immature Rabbit Uterus (Oryctolagus cuniculus, UniProt P06186); test: Relative binding affinity for progesterone receptor (competition with 3H-progesterone); design: species or system rabbit (New Zealand White); details: 16-18 hour incubation, progesterone = 100
T1 construct: cytosol progesterone receptor of the estrogen-primed immature rabbit uterus; tissue Dutchland Laboratories, Inc., Denver, Pa (animals); host or cells: uterus cytosol of estradiol-treated immature female New Zealand White rabbits
T1 sequence (P06186 1-930): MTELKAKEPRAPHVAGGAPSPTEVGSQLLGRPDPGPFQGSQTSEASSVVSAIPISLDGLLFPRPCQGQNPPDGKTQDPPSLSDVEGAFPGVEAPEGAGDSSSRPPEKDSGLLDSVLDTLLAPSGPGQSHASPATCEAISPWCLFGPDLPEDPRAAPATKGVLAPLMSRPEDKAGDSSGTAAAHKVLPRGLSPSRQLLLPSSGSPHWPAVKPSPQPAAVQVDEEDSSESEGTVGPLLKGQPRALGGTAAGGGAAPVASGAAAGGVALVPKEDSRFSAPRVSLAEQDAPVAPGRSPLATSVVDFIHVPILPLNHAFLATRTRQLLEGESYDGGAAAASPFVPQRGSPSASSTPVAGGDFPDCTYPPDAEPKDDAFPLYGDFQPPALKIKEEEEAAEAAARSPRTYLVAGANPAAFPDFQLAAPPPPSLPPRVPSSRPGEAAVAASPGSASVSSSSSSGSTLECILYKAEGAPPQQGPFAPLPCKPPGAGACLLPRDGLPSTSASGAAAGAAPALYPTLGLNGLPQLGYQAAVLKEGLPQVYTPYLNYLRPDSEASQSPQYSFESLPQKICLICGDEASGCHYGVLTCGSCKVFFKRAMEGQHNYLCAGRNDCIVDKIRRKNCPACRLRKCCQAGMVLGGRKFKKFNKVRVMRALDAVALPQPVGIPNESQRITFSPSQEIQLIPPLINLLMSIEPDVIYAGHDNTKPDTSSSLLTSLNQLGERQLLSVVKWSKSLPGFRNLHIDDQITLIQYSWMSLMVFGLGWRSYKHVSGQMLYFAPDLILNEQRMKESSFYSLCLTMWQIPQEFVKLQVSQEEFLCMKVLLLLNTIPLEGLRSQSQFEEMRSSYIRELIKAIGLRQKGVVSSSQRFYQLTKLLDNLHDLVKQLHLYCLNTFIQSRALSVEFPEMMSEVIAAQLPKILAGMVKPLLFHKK
Experimental: RBA values recorded at 0° C. after short incubation times (e.g., 2 hr) mainly reflect differences in the association rate constants of the competing ligands, whereas those measured after long incubation times (e.g., 16 to 24 hr) and/or higher temperatures predominantly are influenced by differences in the dissociation rate constants of the competing ligands. RBA's determined after short incubation times primarily reflect the association of the competitor compared to the natural hormone. Conversely, RBA's measured after long incubation times reflect the dissociation rate of the competitor compared to the natural hormone.
The assay components are combined, allowed to equilibrate, and unbound radioactivity removed by charcoal adsorption.
Animal species. Immature female New Zealand White rabbits weighing 0.8 to 1.0 kg (Dutchland Laboratories, Inc., Denver, Pa).
Pretreatment. Subcutaneous treatment with 15 μg 17β-estradiol/0.6 ml sesame oil each morning (0830 to 0930 hr) for three days. Animals sacrificed 24 hr after final injection.
Tissue. Uterus; each uterus weighed about 1.0 g and two or three uteri were pooled for each assay.
Buffer. (A) 0.01M TES, pH 7.4, 1 mM EDTA, 0.012M thioglycerol and 30% glycerol for cytosol preparation and ^3 H-steroid, unlabeled hormone and compound solutions. (B) 0.01M TES, pH 7.4, 1 mM EDTA and 0.012M thioglycerol for charcoal solution.
Homogenization. Five or six 5-second bursts with 30 second cooling periods between bursts using Brinkman Polytron Pt. 10 at 3.5 rheostat setting.
Temperature. 0°-4° C. for all steps.
Centrifugation. 45,000 rpm for 1 hr, 50 Ti rotor, Beckman L8-80 ultracentrifuge.
Incubation. 16-18 hr at 4°-6° C.
Concentations. 1×10^-10 M to 1×10^-5 M (7 concentrations).
Method. Charcoal adsorption method used to remove unbound radioactivity. Five-tenths ml of dextran-coated charcoal (0.5% Norit A and 0.05% dextran T-70) added to all tubes except total radioactivity tubes (0.5 ml buffer [B] added), tubes vortexed 3-5 sec, allowed to sit for 10 minutes and centrifuged 10 minutes at 2000 rpm in Beckman TJ-6 centrifuge at 0°-4° C.
Data Interpretation. […] The relative binding affinity (RBA) of each compound was calculated by using the following equation. [formula] where

[7] = target: T1, Cytosol Progesterone Receptor of the Estrogen-primed Immature Rabbit Uterus; details: relative to progesterone = 100; literature; cited from earlier work
cycling rats [8] = test: Blockade of ovulation in rats; type: in vivo, rat (Charles River CD); details: for No. Rats Ovulated (of rats treated) / No. of Oviductal Eggs in Rats that Ovulated (X ± S.D.): single sc
From the text: The treated rats were sacrificed on the morning of expected estrus and eggs, if present, were flushed from the oviducts and counted. | *This assay employs cycling Charles River CD rats. For methods refer to | Beattie, C. W. and A. Corbin, Endocrinology 97, 885, 1975. […] | diestrus. Rats were sacrificed 43 to 44 hr later on the morning of | expected estrus. Eggs, if present, were flushed from oviducts and counted | under a stereomicroscope.

[9] = system: androgen target organs of castrate immature male rats; test: Anti-androgenic activity in the castrate immature rat assay; type: in vivo
Experimental: The oral anti-androgenic activity of 6-methyl-6-dehydro-17α-ethynylprogesterone was evaluated in the castrate immature male rat assay [Lerner et al., Proc. Soc. […] The assay is briefly described in the footnotes to Table 11.
*This assay employs castrate immature rats. For methods refer to Lerner,
L. J., A. Bianchi and A. Borman, Proc. Soc.
**Groups of rats (7/group) were given daily injections of 0.3 ml sesame
oil (control) or compound (in 0.3 ml sesame oil) for 7 days. Some groups
also concurrently received progestational compounds by the sc or oral
route of administration in order to evaluate antiandrogenic activity. One
day after the final doses, the animals were sacrificed and the androgen
target organs indicated were weighed.
***Statistically significant (p < 0.05) lower organ weights versus the
testosterone, sc, (400 μg/rat/day) group as determined by Analysis of
Variance coupled with Duncan's Multiple Range Test.

[10] = general knowledge; cited from earlier work
[11] = system: uterine endometrium of estrone-primed immature rabbits; test: Clauberg assay (progestational activity, McPhail); type: in vivo, rabbit (New Zealand White); details: sc
[12] = sc 25 μg/rat daily + testosterone sc 400
[13] = sc 100 μg/rat daily + testosterone sc 400
[14] = sc 400 μg/rat daily + testosterone sc 400

Compound: C#C[C@]1(O)CC[C@H]2[C@@H]3CCC4=CC(=O)CC[C@@H]4[C@H]3CC[C@@]21CC (relative stereo) [(±)Norgestrel]
- Threshold or effective dose, Kaufman Assay ([1]; oral): 12 mg/cycle
- Threshold or effective dose, Clauberg Assay ([2]; oral): 0.03-0.1 mg/animal
- Threshold or effective dose, Clauberg Assay ([2]; s.c. (i.m.)): 0.03 mg/animal
- effectiveness in suppressing ovulation relative to progesterone (Beattie and Corbin 1975), in words (cycling rats [3]): five times as effective as progesterone

Compound: CCCCCC(=O)O[C@]1(C(C)=O)CC[C@H]2[C@@H]3CCC4=CC(=O)CC[C@]4(C)[C@H]3CC[C@@]21C [17α-hydroxyprogesterone caproate]
- inhibition of nucleic acid synthesis, in words [4]: Significant inhibition of nucleic acid synthesis

Compound: CCCCCC(=O)O[C@]1(C(C)=O)CC[C@H]2[C@@H]3CCC4=CC(=O)CC[C@@H]4[C@H]3CC[C@@]21C [19-nor-17α-hydroxyprogesterone caproate]
- inhibition of nucleic acid synthesis, in words [4]: Significant inhibition of nucleic acid synthesis

Compound: CC(=O)O[C@]1(C(C)=O)CC[C@H]2[C@@H]3CCC4=CC(=O)CC[C@]4(C)[C@H]3CC[C@@]21C [17α-Acetoxyprogesterone (Prodox ®), 17α-Acetoxyprogesterone, reference compound]
- thromboembolic episodes, in words [5]: higher rate of thromboembolic episodes
- RBA ([6]; Assay 5): 122%
- RBA ([6]; Assay 6): 114%

Compound: CC(=O)[C@H]1CC[C@H]2[C@@H]3CCC4=CC(=O)CC[C@]4(C)[C@H]3CC[C@]12C [Progesterone]
- RBA (Kontula et al. 1975) [7]: 100
- ovulation, in words (cycling rats [8]; 500 μg progesterone, 100, 250 or 500 μg 17α-ethynylprogesterone): ovulation was blocked in most rats
- ovulation, in words (cycling rats [8]; 100 or 250 μg progesterone, 50 μg 17α-ethynylprogesterone): ovulated in a normal fashion
- No. Rats Ovulated (of rats treated) (cycling rats [8]; 100 μg/rat): 5/5
- No. of Oviductal Eggs in Rats that Ovulated (X ± S.D.) (cycling rats [8]; 100 μg/rat): 7.8 ± 3.8
- No. Rats Ovulated (of rats treated) (cycling rats [8]; 250 μg/rat): 4/5
- No. of Oviductal Eggs in Rats that Ovulated (X ± S.D.) (cycling rats [8]; 250 μg/rat): 7.0 ± 3.8
- No. Rats Ovulated (of rats treated) (cycling rats [8]; 500 μg/rat): 1/4
- No. of Oviductal Eggs in Rats that Ovulated (X ± S.D.) (cycling rats [8]; 500 μg/rat): 9.0
- Threshold or effective dose, Kaufman Assay ([1]; i.m.): 200 mg/cycle
- Levator Ani weight (X ± S.D.) [9, 12]: 54 ± 15 mg
- Seminal Vesicles weight (X ± S.D.) [9, 12]: 157 ± 19 mg
- Ventral Prostate weight (X ± S.D.) [9, 12]: 71 ± 28 mg
- Levator Ani weight (X ± S.D.) [9, 13]: 58 ± 15 mg
- Ventral Prostate weight (X ± S.D.) [9, 13]: 80 ± 27 mg
- Levator Ani weight (X ± S.D.) [9, 14]: 59 ± 14 mg
- Seminal Vesicles weight (X ± S.D.) [9, 14]: 162 ± 26 mg
- Ventral Prostate weight (X ± S.D.) [9, 14]: 60 ± 26 mg
- anti-androgenic activity, in words ([9]; with testosterone sc 400 μg/rat/day, doses up to 400 μg/rat/day (progestagen oral; progesterone sc)): inactive
- Threshold or effective dose, Clauberg Assay ([2]; oral): 10.0 mg/animal
- Threshold or effective dose, Clauberg Assay ([2]; s.c. (i.m.)): 0.5 mg/animal
- oral progestational activity, in words [10]: only weakly active when taken orally
- Uterine Weight (X ± S.D.) ([11]; 50 μg/rabbit daily): 1.09 ± 0.09 g
- Uterine Weight (X ± S.D.) ([11]; 100 μg/rabbit daily): 1.64 ± 0.23 g
